This passage reports MIC results from DBAASP.

Structures are written as SMILES. Values after ≈ are worked out from the molar mass of the structure shown. Where only a bound is given, the exact number is not on record here.

Test systems include Botrytis cinerea #8; Penicillium sp. PHI-8; Alternaria sp. PHI-44; Pyricularia grisea PR-9; Listeria monocytogenes; Escherichia coli O157; Salmonella typhimurium; Escherichia coli; Bacillus subtilis; Staphylococcus capitis 1; Bacillus megaterium Bm11.
Holding throughout (assay): ≥ marks a high value that may be exact or a test limit, other limits are often not marked, values filed in µg/mL are converted to µM
Experiment [1] relates to Fusarium oxysporum CECT 2866.
For experiment [2], the system named is Penicillium expansum PHI-65.
Experiment [3] has as its system Bacillus subtilis CECT 498.
Experiment [4] concerns Penicillium digitatum PHI-26.
In experiment [5] the test system is Penicillium italicum PHI-1.
Experiment [6] deals with Escherichia coli DH5alpha.
For experiment [7], the system named is Aspergillus nidulans biA1.
Experiment [8] has as its system Saccharomyces cerevisiae FY1679.
Experiment [9] deals with Bacillus subtilis CCT 2576.
Experiment [10] has as its system Pseudomonas aeruginosa ATCC 15422.
Experiment [11] relates to Escherichia coli ATCC 25922.
The subject of experiment [12] is Staphylococcus aureus ATCC 6538.
The test system of experiment [13] is Escherichia coli ATCC 25404.
Experiment [14] has as its system Staphylococcus aureus ATCC 29213.
For experiment [15], the system named is Micrococcus luteus ATCC 10420.
For experiment [16], the system named is Staphylococcus epidermidis ATCC 9709.
The subject of experiment [17] is Staphylococcus aureus ATCC 43300.
Experiment [18] deals with Staphylococcus haemolyticus DSM 20263.
Experiment [19] concerns Listeria monocytogenes EGD.
The subject of experiment [20] is Salmonella enterica subsp. enterica serovar Typhimurium ATCC 14028.
Experiment [21] relates to Klebsiella pneumoniae ATCC 13882.
In experiment [22] the test system is Enterobacter cloacae ATCC 13047.
Experiment [23] concerns Pseudomonas aeruginosa ATCC 25010.
Experiment [24] concerns Salmonella enterica subsp. enterica serovar Enteritidis LA5.
The test system of experiment [25] is Salmonella enterica subsp. enterica serovar Enteritidis ATCC 13076.
The test system of experiment [26] is Bacillus cereus ATCC 14579.
Experiment [27] has as its system Staphylococcus aureus ATCC 29740.
For experiment [28], the system named is Staphylococcus saprophyticus ATCC 19701.
The subject of experiment [29] is Yersinia pseudotuberculosis YPIII.
Experiment [30] relates to Candida albicans ATCC 10231.
The test system of experiment [31] is Staphylococcus aureus Cowan 1.

Regarding `CSCC[C@H](NC(=O)[C@H](CCCN=C(N)N)NC(=O)[C@H](Cc1c[nH]c2ccccc12)NC(=O)[C@H](CCC(N)=O)NC(=O)[C@H](Cc1c[nH]c2ccccc12)NC(=O)[C@H](CCCN=C(N)N)NC(=O)[C@H](CCCN=C(N)N)NC(=O)[C@H](CS)NC(=O)[C@H](CCCCN)NC(=O)[C@H](Cc1ccccc1)NC(C)=O)C(=O)N[C@@H](CCCCN)C(=O)N[C@@H](CCCCN)C(=O)N[C@@H](CC(C)C)C(=O)NCC(=O)N[C@@H](C)C(N)=O` [FKCRRWQWRMKKLGA], the MIC was 8 µM (≈ 16.3 µg/mL) in experiment [1]; 16 µM (≈ 32.6 µg/mL) against Botrytis cinerea #8; 8 µM (≈ 16.3 µg/mL) in the experiment on Penicillium sp. PHI-8; 8 µM (≈ 16.3 µg/mL) in [2]; 16 µM (≈ 32.6 µg/mL) in experiment [3]; 4 µM (≈ 8.14 µg/mL) in experiment [4]. For the same compound, the MIC in experiment [5] was 4 µM (≈ 8.14 µg/mL); with Alternaria sp. PHI-44, 16 µM (≈ 32.6 µg/mL); in experiment [6] it was 16 µM (≈ 32.6 µg/mL); in the experiment on Pyricularia grisea PR-9 it was at least 32 µM; in experiment [7], 4 µM (≈ 8.14 µg/mL); in experiment [8], at least 32 µM.
Regarding `CC[C@H](C)[C@H](N)C(=O)N[C@@H](CC(N)=O)C(=O)N[C@@H](Cc1c[nH]c2ccccc12)C(=O)N[C@@H](CCCCN)C(=O)N[C@@H](CCCCN)C(=O)N[C@@H](CC(C)C)C(=O)N[C@@H](CC(C)C)C(=O)N[C@@H](CC(=O)O)C(=O)N[C@@H](C)C(=O)N[C@@H](C)C(=O)N[C@@H](CCCCN)C(=O)N[C@@H](CCC(N)=O)C(=O)N[C@H](C(=O)N[C@@H](CC(C)C)C(N)=O)[C@@H](C)CC` [INWKKLLDAAKQIL], the MIC was determined as 2.96 µM (≈ 4.9 µg/mL) in [9], 28.3 µM (≈ 46.8 µg/mL) in experiment [10], 5.8 µM (≈ 9.59 µg/mL) in experiment [11] and 7.8 µM (≈ 12.9 µg/mL) in [12].
Take `CC(C)C[C@H](NC(=O)[C@H](CC(C)C)NC(=O)[C@H](CCCCN)NC(=O)[C@H](CO)NC(=O)[C@H](CC(C)C)NC(=O)[C@H](C)NC(=O)[C@H](Cc1cnc[nH]1)NC(=O)[C@H](Cc1ccccc1)NC(=O)[C@H](CC(C)C)NC(=O)[C@H](C)NC(=O)CNC(=O)[C@H](CC(C)C)NC(=O)[C@@H](N)Cc1ccccc1)C(=O)O` [FLGALFHALSKLL]: the MIC in experiment [13] was at least 64 µM; in experiment [14] it was 4 µM (≈ 5.72 µg/mL); in [15] it was 2 µM (≈ 2.86 µg/mL); with Listeria monocytogenes it was 8 µM (≈ 11.4 µg/mL); against Escherichia coli O157 it was at least 64 µM; in experiment [16], 4 µM (≈ 5.72 µg/mL). Also, the MIC is 4 µM (≈ 5.72 µg/mL) in [17] and at least 64 µM in the experiment with Salmonella typhimurium.
As for `CC[C@H](C)[C@H](NC(=O)[C@H](CCCN=C(N)N)NC(=O)[C@H](CCCCN)NC(=O)[C@@H]1CSSC[C@@H]2NC(=O)[C@H](CCCCN)NC(=O)[C@H](CC(C)C)NC(=O)[C@H](Cc3ccccc3)NC(=O)[C@H](C)NC(=O)[C@@H]3CSSC[C@H](NC(=O)[C@H](CCCCN)NC(=O)CNC(=O)[C@H](CO)NC(=O)[C@H]([C@@H](C)CC)NC(=O)[C@H](CC(C)C)NC(=O)[C@H]([C@@H](C)O)NC(=O)[C@H](CC(C)C)NC(=O)[C@H](CO)NC(=O)[C@@H]4CCCN4C2=O)C(=O)N[C@@H](CO)C(=O)N[C@@H](CCCN=C(N)N)C(=O)N[C@@H](Cc2ccccc2)C(=O)N[C@@H](Cc2ccc(O)cc2)C(=O)N[C@@H](CC(C)C)C(=O)N[C@@H](CSSC[C@H](NC(=O)[C@H](CC(=O)O)NC(=O)[C@H](CO)NC(=O)[C@H](CCCCN)NC(=O)[C@H](CCCN=C(N)N)NC(=O)CN)C(=O)N[C@@H](Cc2ccccc2)C(=O)N[C@@H](CCCN=C(N)N)C(=O)N[C@@H](CCCCN)C(=O)N[C@@H](CO)C(=O)NCC(=O)N[C@@H](Cc2ccccc2)C(=O)N3)C(=O)N1)C(=O)N[C@@H](Cc1c[nH]c2ccccc12)C(N)=O` [GRKSDCFRKSGFCAFLKCPSLTLISGKCSRFYLCCKRIW], the MIC in [18] is 0.13 µM (≈ 0.584 µg/mL); with Escherichia coli, 0.256 µM (≈ 1.15 µg/mL); in experiment [19], 0.236 µM (≈ 1.06 µg/mL); in experiment [20] it was 0.139 µM (≈ 0.624 µg/mL); against Bacillus subtilis, 0.187 µM (≈ 0.844 µg/mL); in experiment [21], 0.0872 µM (≈ 0.393 µg/mL). Also, the MIC in experiment [22] was found to be 0.177 µM (≈ 0.799 µg/mL); in [23], 0.244 µM (≈ 1.1 µg/mL); in [24], 0.147 µM (≈ 0.662 µg/mL); in experiment [25], 0.163 µM (≈ 0.732 µg/mL); in [26] it was 0.208 µM (≈ 0.938 µg/mL); in experiment [27], 0.06 µM (≈ 0.27 µg/mL). This compound had an MIC in experiment [28] of 0.147 µM (≈ 0.662 µg/mL).
As for `CC[C@H](C)[C@H](NC(=O)CNC(=O)[C@H](CO)NC(=O)[C@H](CC(C)C)NC(=O)[C@@H](NC(=O)[C@H](CCCN=C(N)N)NC(=O)CNC(=O)[C@@H](NC(=O)[C@H](CC(C)C)NC(=O)[C@@H]1CCCN1C(=O)[C@H](CC(C)C)NC(=O)[C@@H](N)Cc1ccccc1)[C@@H](C)CC)C(C)C)C(=O)N[C@@H](C)C(N)=O` [FLPLIGRVLSGIA], the MIC in experiment [29] was at least 40 µM; in experiment [30], 40 µM (≈ 54.2 µg/mL); in the experiment with Staphylococcus capitis 1, at least 40 µM; in experiment [31], at least 40 µM; in experiment [11], over 40 µM; with Bacillus megaterium Bm11 it was 20 µM (≈ 27.1 µg/mL).
